Assay results: US11447466B2, “Substituted indole compounds useful as inhibitors of TLR7/8/9” (BRISTOL-MYERS SQUIBB COMPANY, priority 2017, dated 2022)

Experiments:
Format in all cases: cell-based
human TLR7 = biological target: T1, human TLR7 (Homo sapiens, UniProt Q9NYK1); assay: TLR7 inhibition reporter assay (HEK-Blue SEAP reporter, gardiquimod stimulation); conditions: HEK-Blue cells overexpressing human TLR7, SEAP reporter, gardiquimod 7.5 μM, 22 hour incubation
T1 construct: host or cells: HEK-Blue cells
T1 sequence (Q9NYK1 27-1049): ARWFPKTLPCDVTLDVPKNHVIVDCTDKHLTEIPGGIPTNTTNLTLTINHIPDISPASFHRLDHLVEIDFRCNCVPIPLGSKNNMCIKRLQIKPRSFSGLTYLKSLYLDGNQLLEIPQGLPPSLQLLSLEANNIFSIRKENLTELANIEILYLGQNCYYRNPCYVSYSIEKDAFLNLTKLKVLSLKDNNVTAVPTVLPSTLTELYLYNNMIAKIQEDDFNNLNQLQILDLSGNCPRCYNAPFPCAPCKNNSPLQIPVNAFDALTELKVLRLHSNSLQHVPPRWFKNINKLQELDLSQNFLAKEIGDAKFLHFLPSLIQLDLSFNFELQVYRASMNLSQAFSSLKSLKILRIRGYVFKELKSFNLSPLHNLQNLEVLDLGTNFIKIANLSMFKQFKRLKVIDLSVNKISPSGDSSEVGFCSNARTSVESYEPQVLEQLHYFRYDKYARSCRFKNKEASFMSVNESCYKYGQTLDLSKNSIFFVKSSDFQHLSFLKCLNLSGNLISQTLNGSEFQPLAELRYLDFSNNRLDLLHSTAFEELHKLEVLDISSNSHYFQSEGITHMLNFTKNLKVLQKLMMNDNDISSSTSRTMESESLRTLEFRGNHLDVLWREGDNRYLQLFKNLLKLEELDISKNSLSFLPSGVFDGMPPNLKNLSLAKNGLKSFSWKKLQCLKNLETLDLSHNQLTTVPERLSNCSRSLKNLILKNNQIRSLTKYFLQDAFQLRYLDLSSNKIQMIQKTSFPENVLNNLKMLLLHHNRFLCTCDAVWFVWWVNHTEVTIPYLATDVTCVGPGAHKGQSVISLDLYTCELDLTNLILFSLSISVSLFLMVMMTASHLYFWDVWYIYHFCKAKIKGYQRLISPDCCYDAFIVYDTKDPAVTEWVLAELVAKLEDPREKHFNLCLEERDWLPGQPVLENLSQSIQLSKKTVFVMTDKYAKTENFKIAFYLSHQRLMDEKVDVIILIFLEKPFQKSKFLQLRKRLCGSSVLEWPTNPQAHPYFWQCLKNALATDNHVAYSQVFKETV
Outline: (§1)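 HEK-Blue cells overexpressing human TLR7, TLR8 or TLR9 carry a SEAP reporter driven by NF-κB/AP-1 sites. Compounds (0.05 nM–50 μM) were preincubated 30 min at room temperature, then cells were stimulated with gardiquimod 7.5 μM (TLR7), R848 15.9 μM (TLR8) or ODN2006 5 nM (TLR9) for 22 h at 37 °C.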

human TLR8 = biological target: T2, human TLR8 (Homo sapiens, UniProt Q9NR97); assay: TLR8 inhibition reporter assay (HEK-Blue SEAP reporter, R848 stimulation); conditions: HEK-Blue cells overexpressing human TLR8, SEAP reporter, R848 15.9 μM, 22 hour incubation
T2 construct: host or cells: HEK-Blue cells
T2 sequence (Q9NR97 27-1041): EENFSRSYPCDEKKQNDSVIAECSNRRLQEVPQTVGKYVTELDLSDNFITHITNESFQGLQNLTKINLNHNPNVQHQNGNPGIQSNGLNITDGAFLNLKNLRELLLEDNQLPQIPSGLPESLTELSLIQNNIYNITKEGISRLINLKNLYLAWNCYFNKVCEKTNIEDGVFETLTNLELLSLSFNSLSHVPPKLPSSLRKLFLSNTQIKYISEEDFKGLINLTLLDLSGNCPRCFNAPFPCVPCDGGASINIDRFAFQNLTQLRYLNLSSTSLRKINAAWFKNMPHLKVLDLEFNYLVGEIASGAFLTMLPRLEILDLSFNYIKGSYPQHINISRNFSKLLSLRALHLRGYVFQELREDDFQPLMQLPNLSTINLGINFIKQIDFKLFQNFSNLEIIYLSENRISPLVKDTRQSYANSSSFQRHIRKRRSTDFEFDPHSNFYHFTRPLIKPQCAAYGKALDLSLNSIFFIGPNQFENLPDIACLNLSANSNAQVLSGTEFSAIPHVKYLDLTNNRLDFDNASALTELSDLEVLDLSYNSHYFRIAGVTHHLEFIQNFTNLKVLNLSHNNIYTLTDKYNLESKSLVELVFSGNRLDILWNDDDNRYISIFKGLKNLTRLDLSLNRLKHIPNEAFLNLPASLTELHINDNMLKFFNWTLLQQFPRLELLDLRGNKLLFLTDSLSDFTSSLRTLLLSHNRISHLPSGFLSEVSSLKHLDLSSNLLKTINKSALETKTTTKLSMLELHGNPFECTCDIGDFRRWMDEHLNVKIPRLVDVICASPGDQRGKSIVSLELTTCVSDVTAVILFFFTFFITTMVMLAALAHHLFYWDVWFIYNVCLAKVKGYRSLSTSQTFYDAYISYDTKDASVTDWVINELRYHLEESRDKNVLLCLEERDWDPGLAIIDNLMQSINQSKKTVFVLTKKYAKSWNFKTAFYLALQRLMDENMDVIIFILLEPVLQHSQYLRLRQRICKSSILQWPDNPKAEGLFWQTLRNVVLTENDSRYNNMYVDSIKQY
Outline: as §1

human TLR9 = biological target: T3, human TLR9 (Homo sapiens, UniProt Q9NR96); assay: TLR9 inhibition reporter assay (HEK-Blue SEAP reporter, ODN2006 stimulation); conditions: HEK-Blue cells overexpressing human TLR9, SEAP reporter, ODN2006 5 nM, 22 hour incubation
T3 construct: host or cells: HEK-Blue cells
T3 sequence (Q9NR96 26-1032): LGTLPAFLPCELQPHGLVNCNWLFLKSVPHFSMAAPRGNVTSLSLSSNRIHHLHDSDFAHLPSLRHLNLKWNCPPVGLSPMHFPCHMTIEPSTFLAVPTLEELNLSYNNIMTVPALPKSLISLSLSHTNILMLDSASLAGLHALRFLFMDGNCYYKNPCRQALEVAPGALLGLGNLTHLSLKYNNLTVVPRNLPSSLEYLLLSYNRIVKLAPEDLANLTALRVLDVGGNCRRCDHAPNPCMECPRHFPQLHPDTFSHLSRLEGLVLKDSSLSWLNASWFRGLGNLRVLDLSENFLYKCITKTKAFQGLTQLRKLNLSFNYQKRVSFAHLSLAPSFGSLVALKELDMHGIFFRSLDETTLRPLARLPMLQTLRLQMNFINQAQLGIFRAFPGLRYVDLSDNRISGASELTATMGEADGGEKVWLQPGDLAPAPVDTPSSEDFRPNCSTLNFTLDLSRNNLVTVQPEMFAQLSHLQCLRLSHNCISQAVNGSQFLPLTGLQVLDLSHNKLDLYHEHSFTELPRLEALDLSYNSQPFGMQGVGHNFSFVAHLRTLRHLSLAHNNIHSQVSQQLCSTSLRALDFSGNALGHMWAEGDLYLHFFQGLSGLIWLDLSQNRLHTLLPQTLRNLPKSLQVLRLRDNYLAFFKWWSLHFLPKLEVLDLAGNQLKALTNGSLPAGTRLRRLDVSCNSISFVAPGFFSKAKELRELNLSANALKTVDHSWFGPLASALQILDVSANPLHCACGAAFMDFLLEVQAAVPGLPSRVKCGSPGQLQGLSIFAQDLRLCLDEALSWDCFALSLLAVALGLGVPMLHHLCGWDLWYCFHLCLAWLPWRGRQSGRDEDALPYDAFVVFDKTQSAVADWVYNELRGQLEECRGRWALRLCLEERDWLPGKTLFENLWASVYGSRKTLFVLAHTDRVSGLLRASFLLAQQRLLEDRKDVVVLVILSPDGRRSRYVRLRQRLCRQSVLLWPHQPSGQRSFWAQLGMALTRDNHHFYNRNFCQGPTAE
Outline: as §1

SMILES	IC50 (human TLR7)	IC50 (human TLR8)	IC50 (human TLR9)
Cc1cc(-c2[nH]c3ccc(C4CCN([C@@H]5CCNC5=O)CC4)cc3c2C(C)C)cn(C)c1=O [Example 123, (R)-5-(3-isopropyl-5-(1-(2-oxopyrrolidin-3-yl)piperidin-4-yl)-1H-indol-2-yl)-1,3-dimethylpyridin-2(1H)-one]	7 nM	8 nM	23800 nM
Cc1c(-c2[nH]c3ccc(C4CCNCC4)cc3c2C(C)C)cc(C#N)c(=O)n1C [Example 23, 5-(3-isopropyl-5-(piperidin-4-yl)-1H-indol-2-yl)-1,6-dimethyl-2-oxo-1,2-dihydropyridine-3-carbonitrile]	62.8 nM	15.1 nM	6270 nM
COc1cc(-c2[nH]c3ccc(C4CCN(C5COC5)CC4)cc3c2C(C)C)c(C)n(C)c1=O [Example 217, 5-(3-isopropyl-5-(1-(oxetan-3-yl)piperidin-4-yl)-1H-indol-2-yl)-3-methoxy-1,6-dimethylpyridin-2(1H)-one]	659 nM	163 nM	10900 nM
Cc1nc(-c2[nH]c3ccc(C4CCNCC4)cc3c2C(C)C)cn(C)c1=O [Example 12, 5-(3-isopropyl-5-(piperidin-4-yl)-1H-indol-2-yl)-1,3-dimethylpyrazin-2(1H)-one]	24.7 nM	29 nM	5230 nM
Cc1cc(-c2[nH]c3ccc(C4CCN(CC(=O)N5CC[C@@H](O)C5)CC4)cc3c2C(C)C)cn(C)c1=O [Example 120, (R)-5-(5-(1-(2-(3-hydroxypyrrolidin-1-yl)-2-oxoethyl)piperidin-4-yl)-3-isopropyl-1H-indol-2-yl)-1,3-dimethylpyridin-2(1H)-one]	7.4 nM	11.5 nM	851 nM
CNC(=O)CN1CCC(c2ccc3[nH]c(-c4cc(OC)c(=O)n(C)c4)c(C(C)C)c3c2)CC1 [Example 129, 2-(4-(3-isopropyl-2-(5-methoxy-1-methyl-6-oxo-1,6-dihydropyridin-3-yl)-1H-indol-5-yl)piperidin-1-yl)-N-methylacetamide]	5 nM	8 nM	2930 nM
Cc1nc(-c2[nH]c3ccc(C4CCN(C)CC4)cc3c2C(C)C)cn(C)c1=O [Example 183, 5-(3-isopropyl-5-(1-methylpiperidin-4-yl)-1H-indol-2-yl)-1,3-dimethylpyrazin-2(1H)-one]	28.5 nM	31.4 nM	9650 nM
Cc1nc(-c2[nH]c3ccc(C4CCN(C(=O)CN(C)C)CC4)cc3c2C(C)C)cn(C)c1=O [Example 295, 5-(5-(1-(dimethylglycyl)piperidin-4-yl)-3-isopropyl-1H-indol-2-yl)-1,3-dimethylpyrazin-2(1H)-one]	114 nM	61.9 nM	9690 nM
COCc1cc(-c2[nH]c3ccc(C4CCN(C5COC5)CC4)cc3c2C(C)C)cn(C)c1=O [Example 346, 5-(3-isopropyl-5-(1-(oxetan-3-yl)piperidin-4-yl)-1H-indol-2-yl)-3-(methoxymethyl)-1-methylpyridin-2(1H)-one]	37.9 nM	86.8 nM	16700 nM
Cc1c(-c2[nH]c3ccc(C4CCN(C(=O)CN(C)C)CC4)cc3c2C(C)C)cn(C)c(=O)c1C#N [Example 274, 5-(5-(1-(dimethylglycyl)piperidin-4-yl)-3-isopropyl-1H-indol-2-yl)-1,4-dimethyl-2-oxo-1,2-dihydropyridine-3-carbonitrile]	183 nM	15.3 nM	1590 nM
CNC(=O)CN1CCC(c2ccc3[nH]c(-c4cc(C)c(=O)n(C)c4)c(C(C)C)c3c2)CC1 [Example 117, 2-(4-(2-(1,5-dimethyl-6-oxo-1,6-dihydropyridin-3-yl)-3-isopropyl-1H-indol-5-yl)piperidin-1-yl)-N-methylacetamide]	2 nM	5.3 nM	14000 nM
CC(C)c1c(-c2cc(-c3cncnc3)c(=O)n(C)c2)[nH]c2ccc(C3CCN(CCCC(F)(F)F)CC3)cc12 [Example 104, 5-(3-isopropyl-5-(1-(4,4,4-trifluorobutyl)piperidin-4-yl)-1H-indol-2-yl)-1-methyl-3-(pyrimidin-5-yl)pyridin-2(1H)-one]	13.1 nM	3.5 nM	2700 nM
Cc1c(-c2[nH]c3ccc(C4CCN(C(C)C)CC4)cc3c2C(C)C)cn(C)c(=O)c1C [Example 212, 5-(3-isopropyl-5-(1-isopropylpiperidin-4-yl)-1H-indol-2-yl)-1,3,4-trimethylpyridin-2(1H)-one]	17.1 nM	17.4 nM	12600 nM
Cc1c(-c2[nH]c3ccc(C4CCN(C)CC4)cc3c2C(C)C)cn(C)c(=O)c1Cl [Example 240, 3-chloro-5-(3-isopropyl-5-(1-methylpiperidin-4-yl)-1H-indol-2-yl)-1,4-dimethylpyridin-2(1H)-one]	1 nM	3.7 nM	2590 nM
